Measurements as given in the NIST ThermoML archive (doi:10.1021/je400535t).
Where “and” joins values, the source holds several entries; their conditions need not be identical. Equal entries are not always repeated. Numbers after ± are expanded uncertainties.

Experiment: molar heat capacity at constant pressure
Conditions: 101.33 kPa, Crystal, Small (less than 1 g) adiabatic calorimetry

O=C([O][Sb]([O]C(=O)C12CC3CC(CC(C3)C1)C2)([c]1ccccc1)([c]1ccccc1)[c]1ccccc1)C12CC3CC(CC(C3)C1)C2
Conditions | molar heat capacity at constant pressure
5 K | 2.04 ± 0.1 J/K/mol
6.41 K | 4.28 ± 0.19 J/K/mol
6.94 K | 5 ± 0.22 J/K/mol
7.48 K | 6.19 ± 0.27 J/K/mol
8.31 K | 8.15 ± 0.35 J/K/mol
9.04 K | 10 ± 0.4 J/K/mol
9.66 K | 11.6 ± 0.5 J/K/mol
10 K | 12.5 ± 0.5 J/K/mol
10.2 K | 13.1 ± 0.6 J/K/mol
10.77 K | 14.6 ± 0.6 J/K/mol
11.22 K | 16 ± 0.7 J/K/mol
11.69 K | 17.3 ± 0.7 J/K/mol
12.18 K | 18.9 ± 0.8 J/K/mol
12.78 K | 20.8 ± 0.9 J/K/mol
13.14 K | 22 ± 0.9 J/K/mol
13.61 K | 23.6 ± 1 J/K/mol
14.14 K | 25.5 ± 1.1 J/K/mol
14.53 K | 26.8 ± 1.1 J/K/mol
15 K | 28.4 ± 1.2 J/K/mol
15.03 K | 28.42 ± 0.46 J/K/mol
15.43 K | 29.84 ± 0.48 J/K/mol
15.87 K | 31.16 ± 0.49 J/K/mol
16.49 K | 33.38 ± 0.52 J/K/mol
17.1 K | 35.31 ± 0.55 J/K/mol
17.71 K | 37.46 ± 0.58 J/K/mol
18.32 K | 39.7 ± 0.61 J/K/mol
18.89 K | 41.48 ± 0.63 J/K/mol
19.52 K | 43.6 ± 0.66 J/K/mol
20 K | 45.29 ± 0.68 J/K/mol
20.03 K | 45.33 ± 0.68 J/K/mol
21.3 K | 50 ± 0.74 J/K/mol
21.81 K | 51.4 ± 0.75 J/K/mol
22.55 K | 53.73 ± 0.78 J/K/mol
23.78 K | 58.14 ± 0.83 J/K/mol
24.3 K | 60.3 ± 0.86 J/K/mol
25 K | 62.48 ± 0.88 J/K/mol
25.02 K | 62.63 ± 0.88 J/K/mol
26.25 K | 66.95 ± 0.93 J/K/mol
26.83 K | 69 ± 0.95 J/K/mol
27.53 K | 71.5 ± 0.98 J/K/mol
28.8 K | 76.1 ± 1 J/K/mol
29.43 K | 78.2 ± 1.1 J/K/mol
30 K | 80.54 ± 1 J/K/mol
30.12 K | 81.06 ± 1 J/K/mol
31.46 K | 85.96 ± 1.1 J/K/mol
32.84 K | 90.86 ± 1.2 J/K/mol
33.37 K | 92.7 ± 1.2 J/K/mol
34.23 K | 95.66 ± 1.2 J/K/mol
35 K | 98.3 ± 1.2 J/K/mol
35.64 K | 100.4 ± 1.3 J/K/mol
37.11 K | 105.3 ± 1.3 J/K/mol
38.61 K | 110.2 ± 1.4 J/K/mol
39.32 K | 112.6 ± 1.4 J/K/mol
40 K | 114.6 ± 1.5 J/K/mol
40.13 K | 115 ± 0.8 J/K/mol
41.68 K | 119.9 ± 0.9 J/K/mol
43.2 K | 124.6 ± 0.9 J/K/mol
44.84 K | 129.5 ± 0.9 J/K/mol
45 K | 130 ± 0.9 J/K/mol
46.46 K | 134.4 ± 1 J/K/mol
48.11 K | 139.3 ± 1 J/K/mol
49.81 K | 144.3 ± 1 J/K/mol
50 K | 144.9 ± 1 J/K/mol
51.54 K | 149.4 ± 1.1 J/K/mol
53.3 K | 154.6 ± 1.1 J/K/mol
55.08 K | 159.8 ± 1.2 J/K/mol
56.92 K | 165 ± 1.2 J/K/mol
58.79 K | 170.2 ± 1.2 J/K/mol
60 K | 173.4 ± 1.2 J/K/mol
60.68 K | 175.3 ± 1.3 J/K/mol
62.61 K | 180.4 ± 1.3 J/K/mol
64.56 K | 185.5 ± 1.3 J/K/mol
65.56 K | 188.2 ± 1.4 J/K/mol
66.56 K | 190.7 ± 1.4 J/K/mol
67.71 K | 194 ± 1.4 J/K/mol
68.61 K | 196.1 ± 1.4 J/K/mol
69.83 K | 198.9 ± 1.4 J/K/mol
70 K | 199.7 ± 1.4 J/K/mol
71.36 K | 203.1 ± 1.5 J/K/mol
72.79 K | 206.9 ± 1.5 J/K/mol
74.91 K | 212.3 ± 1.5 J/K/mol
76.18 K | 214.9 ± 1.5 J/K/mol
77.05 K | 217.4 ± 1.6 J/K/mol
79.88 K | 223.6 ± 1.6 J/K/mol
80 K | 223.8 ± 1.6 J/K/mol
82.03 K | 228.1 ± 1.6 J/K/mol
82.81 K | 229.3 ± 1.6 J/K/mol
84.2 K | 232.4 ± 1.7 J/K/mol
84.88 K | 233.7 ± 1.7 J/K/mol
86.94 K | 238 ± 1.7 J/K/mol
87.67 K | 240.1 ± 1.7 J/K/mol
89 K | 242.4 ± 1.7 J/K/mol
90 K | 244.7 ± 1.7 J/K/mol
90.77 K | 246 ± 1.7 J/K/mol
91.06 K | 246.7 ± 1.7 J/K/mol
93.12 K | 251.6 ± 1.7 J/K/mol
93.18 K | 251.3 ± 1.7 J/K/mol
95.1 K | 255.9 ± 1.8 J/K/mol
97.23 K | 260.6 ± 1.8 J/K/mol
99.29 K | 265.2 ± 1.8 J/K/mol
100 K | 266.9 ± 1.8 J/K/mol
101.34 K | 269.7 ± 1.9 J/K/mol
103.39 K | 274.4 ± 1.9 J/K/mol
105.44 K | 279.4 ± 1.9 J/K/mol
107.49 K | 283.8 ± 1.9 J/K/mol
109.54 K | 288 ± 2 J/K/mol
110 K | 289.1 ± 2 J/K/mol
111.58 K | 292.9 ± 2 J/K/mol
113.6 K | 297.5 ± 2 J/K/mol
115.64 K | 301.6 ± 2.1 J/K/mol
117.68 K | 306.6 ± 2.1 J/K/mol
119.72 K | 310.6 ± 2.1 J/K/mol
120 K | 311.3 ± 2.1 J/K/mol
121.6 K | 314.8 ± 2.2 J/K/mol
123.78 K | 319.2 ± 2.2 J/K/mol
125.8 K | 323.9 ± 2.2 J/K/mol
127.83 K | 328.3 ± 2.2 J/K/mol
129.85 K | 332.6 ± 2.3 J/K/mol
130 K | 333.5 ± 2.3 J/K/mol
131.86 K | 337.5 ± 2.3 J/K/mol
133.87 K | 341.8 ± 2.3 J/K/mol
135.88 K | 346.7 ± 2.4 J/K/mol
137.88 K | 351.3 ± 2.4 J/K/mol
139.88 K | 353.9 ± 2.4 J/K/mol
140 K | 356 ± 2.4 J/K/mol
141.88 K | 360.2 ± 2.5 J/K/mol
143.86 K | 365 ± 2.5 J/K/mol
145.81 K | 369.5 ± 2.5 J/K/mol
147.78 K | 373.9 ± 2.5 J/K/mol
149.76 K | 378.3 ± 2.6 J/K/mol
150 K | 378.8 ± 2.6 J/K/mol
152.23 K | 383.7 ± 2.6 J/K/mol
155.2 K | 391.3 ± 2.7 J/K/mol
158.16 K | 397.8 ± 2.7 J/K/mol
160 K | 401.7 ± 2.7 J/K/mol
161.11 K | 404.3 ± 2.7 J/K/mol
164.04 K | 411.2 ± 2.8 J/K/mol
166.97 K | 417.6 ± 2.8 J/K/mol
169.88 K | 424.5 ± 2.9 J/K/mol
170 K | 424.6 ± 2.9 J/K/mol
172.78 K | 430.6 ± 2.9 J/K/mol
175.68 K | 437 ± 3 J/K/mol
178.57 K | 443.5 ± 3 J/K/mol
180 K | 447.4 ± 3 J/K/mol
181.43 K | 450.4 ± 3.1 J/K/mol
184.29 K | 457.3 ± 3.1 J/K/mol
187.14 K | 463.9 ± 3.1 J/K/mol
189.9 K | 470 ± 3.2 J/K/mol
190 K | 470.3 ± 3.2 J/K/mol
192.72 K | 477.1 ± 3.2 J/K/mol
195.53 K | 483.7 ± 3.3 J/K/mol
198.33 K | 489.7 ± 3.3 J/K/mol
200 K | 493.6 ± 3.3 J/K/mol
201.12 K | 496.2 ± 3.4 J/K/mol
203.89 K | 503 ± 3.4 J/K/mol
209.43 K | 515.8 ± 3.5 J/K/mol
210 K | 517.7 ± 3.5 J/K/mol
212.2 K | 523 ± 3.5 J/K/mol
214.96 K | 529.5 ± 3.6 J/K/mol
217.72 K | 536.6 ± 3.6 J/K/mol
220 K | 542.3 ± 3.7 J/K/mol
220.47 K | 543.8 ± 3.7 J/K/mol
223.23 K | 550 ± 3.7 J/K/mol
225.98 K | 556.9 ± 3.8 J/K/mol
228.73 K | 564.4 ± 3.8 J/K/mol
230 K | 567.3 ± 3.8 J/K/mol
231.48 K | 571.2 ± 3.9 J/K/mol
234.15 K | 576.4 ± 3.9 J/K/mol
236.89 K | 583.6 ± 3.9 J/K/mol
239.63 K | 590.6 ± 4 J/K/mol
240 K | 591.6 ± 4 J/K/mol
242.35 K | 597.2 ± 4 J/K/mol
245.08 K | 603.8 ± 4.1 J/K/mol
247.81 K | 610.3 ± 4.1 J/K/mol
250 K | 615.4 ± 4.1 J/K/mol
250.54 K | 617 ± 4.2 J/K/mol
253.26 K | 623.5 ± 4.2 J/K/mol
255.99 K | 630.5 ± 4.2 J/K/mol
258.71 K | 636.5 ± 4.3 J/K/mol
260 K | 639.5 ± 4.3 J/K/mol
261.43 K | 643.1 ± 4.3 J/K/mol
264.15 K | 650.3 ± 4.4 J/K/mol
266.87 K | 656.1 ± 4.4 J/K/mol
269.6 K | 662.2 ± 4.5 J/K/mol
270 K | 664 ± 4.5 J/K/mol
272.32 K | 669 ± 4.5 J/K/mol
275.04 K | 675.8 ± 4.5 J/K/mol
277.75 K | 683.5 ± 4.6 J/K/mol
280 K | 689.1 ± 4.6 J/K/mol
280.46 K | 690.8 ± 4.6 J/K/mol
283.18 K | 697.8 ± 4.7 J/K/mol
285.9 K | 703.7 ± 4.7 J/K/mol
288.62 K | 711.2 ± 4.8 J/K/mol
290 K | 714.3 ± 4.8 J/K/mol
291.34 K | 717.9 ± 4.8 J/K/mol
294.06 K | 724.7 ± 4.9 J/K/mol
296.83 K | 732.2 ± 4.9 J/K/mol
298.15 K | 734.7 ± 4.9 J/K/mol
299.59 K | 739 ± 5 J/K/mol
300 K | 739.3 ± 5 J/K/mol
302.36 K | 745.1 ± 5 J/K/mol
305.06 K | 750.5 ± 5 J/K/mol
307.66 K | 756.7 ± 5.1 J/K/mol
310 K | 763.8 ± 5.1 J/K/mol
310.21 K | 763.5 ± 5.1 J/K/mol
312.71 K | 769.8 ± 5.2 J/K/mol
315.15 K | 776 ± 5.2 J/K/mol
317.53 K | 781.5 ± 5.2 J/K/mol
319.66 K | 787.9 ± 5.3 J/K/mol
320 K | 787.8 ± 5.3 J/K/mol
321.94 K | 792.5 ± 5.3 J/K/mol
324.16 K | 798.1 ± 5.4 J/K/mol
326.33 K | 802.6 ± 5.4 J/K/mol
328.44 K | 808.3 ± 5.4 J/K/mol
330 K | 811.6 ± 5.4 J/K/mol
330.51 K | 813 ± 5.5 J/K/mol
332.48 K | 818.5 ± 5.5 J/K/mol
334.44 K | 823.2 ± 5.5 J/K/mol
336.34 K | 827.3 ± 5.5 J/K/mol
338.2 K | 831.4 ± 5.6 J/K/mol
340 K | 835.5 ± 5.6 J/K/mol and 835.4 ± 5.6 J/K/mol
341.76 K | 839.5 ± 5.6 J/K/mol
343.47 K | 842.9 ± 5.7 J/K/mol
345 K | 846.6 ± 5.7 J/K/mol
346.75 K | 850.4 ± 5.7 J/K/mol
348.1 K | 853.8 ± 5.7 J/K/mol
349.45 K | 857 ± 5.7 J/K/mol
350 K | 859 ± 34 J/K/mol
350.59 K | 860.6 ± 5.8 J/K/mol
352.03 K | 864 ± 5.8 J/K/mol
353.43 K | 868 ± 5.8 J/K/mol
360 K | 882 ± 35 J/K/mol
370 K | 904 ± 36 J/K/mol
380 K | 926 ± 37 J/K/mol
390 K | 949 ± 38 J/K/mol
400 K | 972 ± 39 J/K/mol
410 K | 996 ± 40 J/K/mol
420 K | 1020 ± 41 J/K/mol
430 K | 1044 ± 42 J/K/mol
440 K | 1067 ± 43 J/K/mol
450 K | 1091 ± 44 J/K/mol
460 K | 1118 ± 45 J/K/mol
470 K | 1152 ± 46 J/K/mol
480 K | 1201 ± 48 J/K/mol
490 K | 1251 ± 50 J/K/mol
498 K | 1289 ± 52 J/K/mol
